Results as given in publication PMC8116058, “De novo macrocyclic peptides dissect energy coupling of a heterodimeric ABC transporter by multimode allosteric inhibition” (eLife, 2021).
Positions of bridges follow the written chain, without caps; N, C: chain ends. Non-standard residues stand in square brackets, D forms with d. Residues, ends and D or L forms follow the SMILES beside them. *: point of attachment. 5FAM = O=C1OC2(c3ccc(O)cc3Oc3cc(O)ccc32)c2ccc(C(=O)*)cc21; βAla = NCCC(=O)O

How the values were obtained:
[1] = system: TmrAB; experiment: Conformational epitope test, CP^F anisotropy with TmrAB and SDS; type: binding, Thermus thermophilus
Description: (§1) In order to analyze the binding affinity and specificity of CPs to TmrAB, we established a fluorescence polarization assay. Fluorescein-labeled CP^Fs were incubated with increasing concentrations of TmrAB reconstituted in liposomes at a protein-to-lipid ratio of 1:20 (w/w). […] To address whether the CPs recognize a linear or non-linear epitope, we examined the binding of CP^Fs after disrupting the quaternary and tertiary structure of TmrAB complexes by adding anionic detergent SDS.
Figure 2. […] (A, B) Equilibrium binding analysis. Fluorescence anisotropy of CP^Fs (50 nM) was determined at λex/em = 485/520 nm with increasing concentrations of TmrAB which was reconstituted in liposomes. TmrAB concentrations were calculated based on the random (50/50%) orientation in proteoliposomes ([Stefan et al., 2020]). As a control, equal amounts of empty liposomes were added to CP^Fs (dashed lines, open symbols). The difference in fluorescence polarization was normalized to free (0%) and 100% bound CP^F. Mean values ± SD (n = 3) are shown, and data were analyzed by a one-site binding model. […] Streptavidin beads loaded with CP14^B (1 µM) were mixed with purified TmrAB (60 nM) for 1 hr at 4°C. Beads were washed and bound TmrAB was eluted by adding SDS loading buffer for 10 min at 95°C. Amounts of TmrA in input (I), flow-through (FT), wash fraction (W), and eluate (E) were analyzed by SDS-PAGE and immunoblotting (α-His). Beads without CP^B served as negative control (right panel). (D) One-step purification of TmrAB via immobilized CP14^B matrices. Streptavidin-agarose beads were loaded with CP14^B (1 µM) and mixed with DDM-solubilized membranes of E. coli containing TmrAB as described in (C). Bound TmrAB was eluted in SDS loading buffer and analyzed by SDS-PAGE (silver stain). (E) Native mass spectrometry. TmrAB (4 µM) was buffer exchanged to ESI buffer and incubated with a 2-fold molar excess of CP14^F for 10 min on ice. Protein complexes were investigated by ESI-TOF-mass spectrometry. […] Figure 2—source data 1. Source data for Figure 2. Figure 2—figure supplement 1. […] (A) CP^Bs-mediated isolation of solubilized TmrAB. Streptavidin matrices were loaded with CP^Bs (1 µM) and incubated with purified TmrAB (60 nM) for 1 hr at 4°C. Beads without CP^Bs served as control (see Figure 2C). Bound TmrAB complexes were eluted by the addition of SDS loading buffer for 10 min at 95°C. TmrAB in input (I), flow-through (FT), washing fraction (W), and eluate (E) was analyzed by SDS-PAGE and immunoblotting (α-His). (B) Isolation of TmrAB using CP13^B. Streptavidin matrices were loaded with CP13^B (1 µM) and mixed with DDM-solubilized membranes of E. coli expressing TmrAB as described in (A). Bound TmrAB complexes were eluted in SDS loading buffer and analyzed by SDS-PAGE (silver stain). (C) Formation of CP^F-TmrAB complexes. DDM-solubilized TmrAB (1 µM) was incubated with CP12^F, CP13^F, CP14^F (2 µM each), or CP6^F (5 µM) for 10 min on ice. CP^F-TmrAB complexes were analyzed by gel filtration. […] (D) Conformational epitopes. CP^Fs (50 nM) were incubated with TmrAB (0.6 µM for CP6^F and CP13^F, 0.7 µM for CP12^F, 0.5 µM for CP14^F) in the presence of 1% (v/v) SDS. Fluorescence anisotropy was determined at λex/em = 485/520 nm. […] Figure 2—figure supplement 1—source data 1. Source Data for Figure 2—figure supplement 1. [drawing 2] Figure 2—figure supplement 2. Analysis of CP^F-TmrAB complexes by native mass spectrometry.

[2] = Fluorescence anisotropy with empty liposomes (specificity control); type: binding; details: CP^F 50 nM
Description: as §1
Figure 2. […] (A, B) Equilibrium binding analysis. Fluorescence anisotropy of CP^Fs (50 nM) was determined at λex/em = 485/520 nm with increasing concentrations of TmrAB which was reconstituted in liposomes. TmrAB concentrations were calculated based on the random (50/50%) orientation in proteoliposomes ([Stefan et al., 2020]). As a control, equal amounts of empty liposomes were added to CP^Fs (dashed lines, open symbols). The difference in fluorescence polarization was normalized to free (0%) and 100% bound CP^F. Mean values ± SD (n = 3) are shown, and data were analyzed by a one-site binding model. […] Streptavidin beads loaded with CP14^B (1 µM) were mixed with purified TmrAB (60 nM) for 1 hr at 4°C. Beads were washed and bound TmrAB was eluted by adding SDS loading buffer for 10 min at 95°C. Amounts of TmrA in input (I), flow-through (FT), wash fraction (W), and eluate (E) were analyzed by SDS-PAGE and immunoblotting (α-His). Beads without CP^B served as negative control (right panel). (D) One-step purification of TmrAB via immobilized CP14^B matrices. Streptavidin-agarose beads were loaded with CP14^B (1 µM) and mixed with DDM-solubilized membranes of E. coli containing TmrAB as described in (C). Bound TmrAB was eluted in SDS loading buffer and analyzed by SDS-PAGE (silver stain). (E) Native mass spectrometry. TmrAB (4 µM) was buffer exchanged to ESI buffer and incubated with a 2-fold molar excess of CP14^F for 10 min on ice. Protein complexes were investigated by ESI-TOF-mass spectrometry. […] Figure 2—source data 1. Source data for Figure 2. Figure 2—figure supplement 1. […] (A) CP^Bs-mediated isolation of solubilized TmrAB. Streptavidin matrices were loaded with CP^Bs (1 µM) and incubated with purified TmrAB (60 nM) for 1 hr at 4°C. Beads without CP^Bs served as control (see Figure 2C). Bound TmrAB complexes were eluted by the addition of SDS loading buffer for 10 min at 95°C. TmrAB in input (I), flow-through (FT), washing fraction (W), and eluate (E) was analyzed by SDS-PAGE and immunoblotting (α-His). […] Bound TmrAB complexes were eluted in SDS loading buffer and analyzed by SDS-PAGE (silver stain). […] CP^F-TmrAB complexes were analyzed by gel filtration. […] Fluorescence anisotropy was determined at λex/em = 485/520 nm. […]

[3] = system: TmrAB; experiment: Competition of C4F peptide binding by CP^Bs (fluorescence anisotropy); parameters: species or system Thermus thermophilus; details: C4F 50 nM + TmrAB 4 µM + competitor (CP^B 6 µM or C4^ATTO655 10 µM)
Source text: To elucidate the mechanistic basis for the inhibition of ATP hydrolysis and substrate transport, we investigated the effects of CPs on substrate binding. In the first approach, fluorescent CP^Fs were used as reporters in fluorescence polarization. […] In addition, we examined the impact of CP^Bs on ATP binding to TmrAB by scintillation proximity assays (SPA) (Figure 4C). […] Taken together, CPs are high-affinity allosteric inhibitors of TmrAB that leave ATP binding and substrate interaction largely unaffected, while impairing ATP hydrolysis and substrate translocation across the membrane.
Figure 4. […] (A) CP^Fs binding TmrAB is not affected by substrate peptide binding. […] For competition, C4^ATTO655 peptide (2 µM) or R9LQK peptide (200 µM) were added. (B) Binding of C4F peptide is not affected by CP^Bs. C4F peptides (50 nM) were mixed with TmrAB (4 µM), and fluorescence anisotropy was monitored as described in (A). For competition, C4^ATTO655 (10 µM) or CP^Bs (6 µM) were added. […] TmrAB (0.2 µM) were immobilized on SPA beads and incubated with ATP (3 μM, traced with ^3H-ATP) in the presence and absence of CP^Bs (1 µM each) for 30 min on ice. ATP binding was monitored by SPA. Background values were determined after releasing TmrAB complexes from the beads by adding imidazole (200 mM). The background signal in the absence of CP^Bs was set to 0 cpm. […] As this is an equilibrium experiment, this can be rationalized by the fact that CP13 stabilizes the ATP-bound OF conformer. Figure 4—source data 1. Source data for Figure 4.
To determine equilibrium binding constants, CP^Fs (50 nM) were incubated with increasing concentrations of TmrAB-containing or empty liposomes. To probe the conformational selectivity, CP^Fs (50 nM) were mixed with detergent-solubilized IF TmrAB or OF TmrA^EQB. Before, OF TmrA^EQB was nucleotide-trapped by incubation with ATP (1 mM) and MgCl2 (3 mM) in the absence of CP^Fs for 5 min at 45°C. […] For peptide competition studies, RRYC^fluoresceinKSTEL (C4F, 50 nM) were incubated with detergent-solubilized TmrAB (4 µM), CP^Bs (6 µM), or C4^ATTO655 (10 µM). […] Fluorescence anisotropy was analyzed at λex/em of 485/520 nm using a microplate reader (CLARIOstar, BMG LABTECH). Fluorescence anisotropy was calculated using:(1) r=I||−I⊥/I||+2⋅I⊥ with I||: parallel intensity and I⊥: perpendicular intensity. Binding of CP^Fs were fitted by a one-site binding model (Langmuir 1:1) using:(2) Y=Bmax∙[L]/KD+[L] with Y: binding, Bmax: maximal binding, KD: equilibrium dissociation constant, and [L]: ligand concentration. Data represent mean ± SD from three experiments.

[4] = listed as CPF: CP^F 50 nM alone
[5] = listed as SDS: CP^F 50 nM + TmrAB + 1% (v/v) SDS
[6] = listed as TmrAB: CP^F 50 nM + TmrAB (0.6 µM CP6^F/CP13^F, 0.7 µM CP12^F, 0.5 µM CP14^F)

Row | Compound | Fluorescence anisotropy [1, 4] | Fluorescence anisotropy [1, 5] | Fluorescence anisotropy [1, 6] | Bound CP^F ([2]; amount equal to 0.5000 µM) | Bound C4F peptide, fluorescence anisotropy [3] | Bound CP^F ([2]; amount equal to 0.2500 µM)
1 | CC(C)C[C@@H]1NC(=O)[C@H](Cc2ccccc2)NC(=O)CNC(=O)[C@H](CO)NC(=O)[C@H](Cc2ccccc2)NC(=O)[C@H](CC(=O)O)NC(=O)[C@@H]2CCCN2C(=O)[C@H]([C@@H](C)O)NC(=O)[C@@H](Cc2ccc(O)cc2)NC(=O)CSC[C@@H](C(=O)NCC(=O)N[C@@H](CO)C(=O)NCCC(=O)NCCC(=O)N[C@@H](CCCNC(=N)N)C(=O)N[C@@H](CCCCNC(=O)c2ccc3c(c2)C(=O)OC32c3ccc(O)cc3Oc3cc(O)ccc32)C(N)=O)NC(=O)[C@H](C)NC(=O)[C@H](CC(N)=O)NC(=O)[C@H](CCCNC(=N)N)NC(=O)[C@H](CC(C)C)NC(=O)[C@H](Cc2ccccc2)NC(=O)[C@H](C)NC1=O [CP12] ({CH2CO}-[dY]TPDFSGFLAFLRNACGS[βAla][βAla]RK(5FAM)-NH2; thioether N-16) | 0.0250 | 0.0265 | 0.1604 | -0.19% | 0.128 | –
2 | CC(C)[C@@H]1NC(=O)[C@H](Cc2ccccc2)NC(=O)[C@@H]2CCCN2C(=O)[C@H](CC(N)=O)NC(=O)[C@H](Cc2c[nH]c3ccccc23)NC(=O)[C@H](C(C)C)NC(=O)[C@H](Cc2ccc(O)cc2)NC(=O)[C@H](Cc2ccccc2)NC(=O)[C@@H](Cc2ccc(O)cc2)NC(=O)CSC[C@@H](C(=O)NCC(=O)N[C@@H](CO)C(=O)NCCC(=O)NCCC(=O)N[C@@H](CCCNC(=N)N)C(=O)N[C@@H](CCCCNC(=O)c2ccc3c(c2)C(=O)OC32c3ccc(O)cc3Oc3cc(O)ccc32)C(N)=O)NC(=O)[C@H](CCCCN)NC(=O)[C@H](Cc2ccccc2)NC1=O [CP14] ({CH2CO}-[dY]FYVWNPFVFKCGS[βAla][βAla]RK(5FAM)-NH2; thioether N-12; C-terminus assumed) | 0.0267 | 0.0311 | 0.1410 | – | 0.136 | -5.24%
3 | CC[C@H](C)[C@@H]1NC(=O)[C@H](Cc2c[nH]c3ccccc23)NC(=O)[C@H](CC(N)=O)NC(=O)[C@H](C)NC(=O)[C@H](CO)NC(=O)[C@@H]2CCCN2C(=O)[C@H](CC(=O)O)NC(=O)[C@@H](Cc2ccc(O)cc2)NC(=O)CSC[C@@H](C(=O)NCC(=O)N[C@@H](CO)C(=O)NCCC(=O)NCCC(=O)N[C@@H](CCCNC(=N)N)C(=O)N[C@@H](CCCCNC(=O)c2ccc3c(c2)C(=O)OC32c3ccc(O)cc3Oc3cc(O)ccc32)C(N)=O)NC(=O)[C@H]([C@@H](C)O)NC(=O)[C@H](CC(C)C)NC(=O)[C@H](CC(C)C)NC(=O)[C@H](C(C)C)NC(=O)[C@H](CC(C)C)NC1=O [CP13] ({CH2CO}-[dY]DPSANWILVLLTCGS[βAla][βAla]RK(5FAM)-NH2; thioether N-14; C-terminus assumed) | 0.0252 | 0.0310 | 0.1217 | – | 0.141 | 3.65%
4 | CC[C@H](C)[C@@H]1NC(=O)[C@H]([C@@H](C)O)NC(=O)[C@H](CC(C)C)NC(=O)[C@H](Cc2c[nH]c3ccccc23)NC(=O)[C@H](Cc2ccccc2)NC(=O)[C@H](CC(N)=O)NC(=O)[C@H](CCC(=O)O)NC(=O)[C@H](CC(C)C)NC(=O)[C@H](CS)NC(=O)[C@H](Cc2c[nH]cn2)NC(=O)[C@H](CO)NC(=O)[C@@H](Cc2ccc(O)cc2)NC(=O)CSC[C@@H](C(=O)NCC(=O)N[C@@H](CO)C(=O)NCCC(=O)NCCC(=O)N[C@@H](CCCNC(=N)N)C(=O)N[C@@H](CCCCNC(=O)c2ccc3c(c2)C(=O)OC32c3ccc(O)cc3Oc3cc(O)ccc32)C(N)=O)NC(=O)[C@H](CC(C)C)NC1=O [CP6] ({CH2CO}-[dY]SHCLENFWLTILCGS[βAla][βAla]RK(5FAM)-NH2; thioether N-14) | 0.0222 | 0.0146 | 0.1093 | -6.19% | 0.124 | –
